{"source": "ChEMBL document CHEMBL5465560", "about": "“Selectivity Literature for EUbOPEN Chemogenomic Library” (2024)", "key": {"[1]": {"target": "STE20-like serine/threonine-protein kinase (Homo sapiens, UniProt Q9H2G2)", "sequence (Q9H2G2 whole entry, looked up)": "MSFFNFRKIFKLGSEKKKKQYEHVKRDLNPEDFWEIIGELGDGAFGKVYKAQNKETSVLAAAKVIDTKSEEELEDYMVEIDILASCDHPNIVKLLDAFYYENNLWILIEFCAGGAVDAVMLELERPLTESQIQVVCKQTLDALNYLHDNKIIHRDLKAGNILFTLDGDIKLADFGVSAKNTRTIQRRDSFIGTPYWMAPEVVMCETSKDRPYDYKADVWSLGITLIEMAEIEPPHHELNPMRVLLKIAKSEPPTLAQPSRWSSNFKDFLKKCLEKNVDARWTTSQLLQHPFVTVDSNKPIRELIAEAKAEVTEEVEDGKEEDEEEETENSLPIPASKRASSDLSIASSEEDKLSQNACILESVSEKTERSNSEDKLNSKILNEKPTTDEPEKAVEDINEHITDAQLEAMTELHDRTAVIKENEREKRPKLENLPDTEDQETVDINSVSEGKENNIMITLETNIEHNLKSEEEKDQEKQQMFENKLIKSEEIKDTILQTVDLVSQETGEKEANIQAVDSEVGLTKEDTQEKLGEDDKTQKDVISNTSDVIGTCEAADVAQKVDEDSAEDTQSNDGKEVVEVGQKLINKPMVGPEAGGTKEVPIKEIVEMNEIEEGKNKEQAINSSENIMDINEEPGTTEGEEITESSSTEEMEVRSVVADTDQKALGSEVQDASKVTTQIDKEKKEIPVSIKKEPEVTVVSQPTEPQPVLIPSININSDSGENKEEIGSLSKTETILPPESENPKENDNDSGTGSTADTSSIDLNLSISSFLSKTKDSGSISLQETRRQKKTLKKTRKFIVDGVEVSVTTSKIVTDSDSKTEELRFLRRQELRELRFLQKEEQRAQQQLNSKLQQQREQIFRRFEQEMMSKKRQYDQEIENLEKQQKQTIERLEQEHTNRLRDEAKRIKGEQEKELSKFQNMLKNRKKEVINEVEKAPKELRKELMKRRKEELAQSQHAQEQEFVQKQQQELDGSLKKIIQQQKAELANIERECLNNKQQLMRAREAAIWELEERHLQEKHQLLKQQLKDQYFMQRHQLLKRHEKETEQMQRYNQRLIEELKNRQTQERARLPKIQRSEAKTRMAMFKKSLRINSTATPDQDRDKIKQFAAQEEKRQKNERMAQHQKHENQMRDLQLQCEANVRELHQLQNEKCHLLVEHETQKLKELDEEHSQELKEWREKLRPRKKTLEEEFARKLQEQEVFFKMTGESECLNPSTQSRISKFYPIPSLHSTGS", "test": "Selectivity interaction (KinomeScan (DiscoverX)) EUB0001049a SLK", "settings": "at 1 µM"}, "[2]": {"target": "Fibroblast growth factor receptor 1 (Homo sapiens, UniProt P11362)", "test": "Selectivity interaction (KinaseProfiler screening (Millipore)) EUB0000601a FGFR1", "settings": "at 3 µM"}, "[3]": {"target": "Cyclin-dependent kinase 5 (Homo sapiens, UniProt Q00535)", "sequence (Q00535 whole entry, looked up)": "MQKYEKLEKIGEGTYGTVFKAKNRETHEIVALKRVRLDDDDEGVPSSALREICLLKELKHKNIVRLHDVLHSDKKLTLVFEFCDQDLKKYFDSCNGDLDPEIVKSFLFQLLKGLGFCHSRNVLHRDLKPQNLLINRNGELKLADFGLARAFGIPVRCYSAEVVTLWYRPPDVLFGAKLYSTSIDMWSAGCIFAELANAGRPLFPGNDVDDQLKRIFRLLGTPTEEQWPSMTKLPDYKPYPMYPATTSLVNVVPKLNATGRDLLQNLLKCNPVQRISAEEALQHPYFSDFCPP", "test": "Selectivity interaction (Kinase panel (KiNativ target engagement assay in Jurkat cells)) EUB0001635a CDK5", "format": "cell-based", "settings": "at 1 µM"}, "[4]": {"target": "Serine/threonine-protein kinase PLK1 (Homo sapiens, UniProt P53350)", "sequence (P53350 whole entry)": "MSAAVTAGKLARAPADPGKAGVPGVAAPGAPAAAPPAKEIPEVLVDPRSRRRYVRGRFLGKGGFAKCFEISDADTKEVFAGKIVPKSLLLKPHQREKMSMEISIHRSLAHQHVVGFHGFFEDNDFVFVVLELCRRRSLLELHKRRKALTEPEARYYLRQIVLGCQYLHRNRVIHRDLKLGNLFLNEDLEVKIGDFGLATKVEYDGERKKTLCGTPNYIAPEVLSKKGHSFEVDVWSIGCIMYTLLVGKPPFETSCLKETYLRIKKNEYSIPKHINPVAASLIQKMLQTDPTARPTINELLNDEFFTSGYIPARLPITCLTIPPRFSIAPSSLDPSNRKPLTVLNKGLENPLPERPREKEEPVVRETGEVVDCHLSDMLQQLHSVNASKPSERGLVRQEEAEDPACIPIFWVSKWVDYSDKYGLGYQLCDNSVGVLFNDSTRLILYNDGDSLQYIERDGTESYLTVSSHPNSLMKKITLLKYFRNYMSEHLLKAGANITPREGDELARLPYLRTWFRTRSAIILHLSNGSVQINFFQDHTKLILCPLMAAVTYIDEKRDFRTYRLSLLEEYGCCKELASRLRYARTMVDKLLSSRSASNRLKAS", "test": "Selectivity interaction (Kinase panel (KiNativ target engagement assay in Jurkat cells)) EUB0001635a PLK1", "format": "cell-based", "settings": "Selectivity number of off-targets 0.0, Selectivity number of targets 233.0, Source Knowledge https://www.sciencedirect.com/science/article/pii/S2451945619300674?via%3Dihub, at 1 µM"}, "[5]": {"target": "Calcium/calmodulin-dependent protein kinase type II subunit alpha (Homo sapiens, UniProt Q9UQM7)", "settings": "at 10 µM"}, "[6]": {"target": "Serine/threonine-protein kinase WNK2 (Homo sapiens) (UniProt Q9Y3S1)", "test": "Selectivity interaction (ActivX KiNativ screen (kinase selectivity in THP-1 cell lysates)) EUB0000639a WNK2", "format": "subcellular", "settings": "lysate, at 0.01 µM"}, "[7]": {"target": "T1, Inhibitor of nuclear factor kappa-B kinase subunit epsilon (Homo sapiens) (UniProt Q14164)", "T1 sequence (whole entry)": "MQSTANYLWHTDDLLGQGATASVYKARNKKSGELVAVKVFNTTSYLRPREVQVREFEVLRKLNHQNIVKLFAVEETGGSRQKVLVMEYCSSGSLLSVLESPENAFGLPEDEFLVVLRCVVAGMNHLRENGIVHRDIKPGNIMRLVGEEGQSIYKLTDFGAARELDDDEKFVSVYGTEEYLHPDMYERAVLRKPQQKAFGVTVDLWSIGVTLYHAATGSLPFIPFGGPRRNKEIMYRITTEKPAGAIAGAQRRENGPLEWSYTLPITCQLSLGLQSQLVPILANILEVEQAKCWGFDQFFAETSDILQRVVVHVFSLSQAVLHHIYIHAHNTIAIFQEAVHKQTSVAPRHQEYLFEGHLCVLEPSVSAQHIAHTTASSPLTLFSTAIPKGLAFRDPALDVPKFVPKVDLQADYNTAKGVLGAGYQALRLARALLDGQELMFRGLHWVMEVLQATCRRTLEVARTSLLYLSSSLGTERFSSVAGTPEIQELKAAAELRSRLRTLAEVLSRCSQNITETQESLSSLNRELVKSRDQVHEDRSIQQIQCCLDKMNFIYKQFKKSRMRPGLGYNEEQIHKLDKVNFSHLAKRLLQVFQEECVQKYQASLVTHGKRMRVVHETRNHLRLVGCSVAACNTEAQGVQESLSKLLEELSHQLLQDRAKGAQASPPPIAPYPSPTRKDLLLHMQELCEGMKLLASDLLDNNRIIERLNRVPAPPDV", "test": "Selectivity interaction (ActivX KiNativ screen (kinase selectivity in THP-1 cell lysates)) EUB0000639a IKBKE", "format": "subcellular", "settings": "lysate"}, "[8]": {"target": "Serine/threonine-protein kinase N1 (Homo sapiens, UniProt Q16512)", "test": "Selectivity interaction (ActivX KiNativ screen (kinase selectivity in THP-1 cell lysates)) EUB0000639a PKN1", "format": "subcellular", "settings": "lysate, at 0.01 µM"}, "[9]": {"target": "Mitogen-activated protein kinase 9 (Homo sapiens, UniProt P45984)", "sequence (P45984 whole entry, looked up)": "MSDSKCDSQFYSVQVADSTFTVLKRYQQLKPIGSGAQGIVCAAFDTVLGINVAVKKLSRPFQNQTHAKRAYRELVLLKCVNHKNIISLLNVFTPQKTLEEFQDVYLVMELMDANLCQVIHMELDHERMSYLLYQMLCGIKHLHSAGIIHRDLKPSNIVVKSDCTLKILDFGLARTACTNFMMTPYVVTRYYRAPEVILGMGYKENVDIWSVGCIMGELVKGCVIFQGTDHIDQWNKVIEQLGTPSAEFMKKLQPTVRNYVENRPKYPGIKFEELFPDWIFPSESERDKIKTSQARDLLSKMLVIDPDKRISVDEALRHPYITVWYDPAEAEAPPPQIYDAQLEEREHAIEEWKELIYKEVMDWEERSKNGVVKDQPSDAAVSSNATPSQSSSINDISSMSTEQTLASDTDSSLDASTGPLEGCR", "test": "Selectivity interaction (ActivX KiNativ screen (kinase selectivity in THP-1 cell lysates)) EUB0000639a MAPK9", "format": "subcellular", "settings": "lysate, at 0.04 µM"}, "[10]": {"target": "Interleukin-1 receptor-associated kinase 1 (Homo sapiens) (UniProt P51617)", "sequence (P51617 whole entry, looked up)": "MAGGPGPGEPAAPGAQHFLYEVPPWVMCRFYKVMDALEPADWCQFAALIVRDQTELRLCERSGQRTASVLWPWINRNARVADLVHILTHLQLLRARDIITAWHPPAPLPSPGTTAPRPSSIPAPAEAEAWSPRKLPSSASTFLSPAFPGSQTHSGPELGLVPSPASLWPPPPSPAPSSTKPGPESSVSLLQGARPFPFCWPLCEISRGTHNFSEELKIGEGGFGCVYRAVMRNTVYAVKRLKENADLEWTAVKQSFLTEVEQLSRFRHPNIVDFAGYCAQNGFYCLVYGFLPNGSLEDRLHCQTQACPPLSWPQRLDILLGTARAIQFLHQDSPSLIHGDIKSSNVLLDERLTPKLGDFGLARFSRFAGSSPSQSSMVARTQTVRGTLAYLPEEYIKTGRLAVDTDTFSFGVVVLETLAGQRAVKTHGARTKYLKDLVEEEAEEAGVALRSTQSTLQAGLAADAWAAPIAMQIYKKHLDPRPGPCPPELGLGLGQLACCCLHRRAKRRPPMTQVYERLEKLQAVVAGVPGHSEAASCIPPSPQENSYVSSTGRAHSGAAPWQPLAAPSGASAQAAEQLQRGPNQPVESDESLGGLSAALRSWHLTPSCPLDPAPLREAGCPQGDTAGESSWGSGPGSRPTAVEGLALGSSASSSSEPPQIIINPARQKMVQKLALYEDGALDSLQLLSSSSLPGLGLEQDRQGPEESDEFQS", "test": "Selectivity interaction (KinomeScan (DiscoverX)) EUB0000595a IRAK1", "settings": "at 10 µM"}, "[11]": {"target": "Mitogen-activated protein kinase 11 (Homo sapiens) (UniProt Q15759)", "test": "Selectivity interaction (KinomeScan (DiscoverX)) EUB0000092b MAPK11", "settings": "at 10 µM"}, "[12]": {"target": "Tyrosine-protein kinase Yes (Homo sapiens) (UniProt P07947)", "sequence (P07947 2-543 limits assumed)": "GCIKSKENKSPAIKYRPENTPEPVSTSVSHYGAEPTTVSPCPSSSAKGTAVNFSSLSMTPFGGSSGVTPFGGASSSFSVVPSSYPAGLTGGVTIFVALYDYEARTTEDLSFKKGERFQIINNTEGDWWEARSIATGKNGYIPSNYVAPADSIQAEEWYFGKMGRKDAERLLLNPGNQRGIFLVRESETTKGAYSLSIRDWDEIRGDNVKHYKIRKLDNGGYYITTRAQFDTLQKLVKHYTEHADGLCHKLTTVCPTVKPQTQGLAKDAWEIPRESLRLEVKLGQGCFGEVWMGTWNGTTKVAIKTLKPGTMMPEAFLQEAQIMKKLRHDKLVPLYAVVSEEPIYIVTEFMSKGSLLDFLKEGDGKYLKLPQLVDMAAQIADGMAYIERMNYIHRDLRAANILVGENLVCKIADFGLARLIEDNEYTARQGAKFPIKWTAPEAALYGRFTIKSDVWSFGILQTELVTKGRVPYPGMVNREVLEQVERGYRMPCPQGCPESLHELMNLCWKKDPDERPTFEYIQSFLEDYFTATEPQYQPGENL", "test": "Selectivity interaction (KinomeScan (DiscoverX)) EUB0000618a YES1", "settings": "at 10 µM"}, "[13]": {"test_system": "Epidermal growth factor receptor (Homo sapiens), P00533 [T790M]", "sequence (P00533 whole entry T790M)": "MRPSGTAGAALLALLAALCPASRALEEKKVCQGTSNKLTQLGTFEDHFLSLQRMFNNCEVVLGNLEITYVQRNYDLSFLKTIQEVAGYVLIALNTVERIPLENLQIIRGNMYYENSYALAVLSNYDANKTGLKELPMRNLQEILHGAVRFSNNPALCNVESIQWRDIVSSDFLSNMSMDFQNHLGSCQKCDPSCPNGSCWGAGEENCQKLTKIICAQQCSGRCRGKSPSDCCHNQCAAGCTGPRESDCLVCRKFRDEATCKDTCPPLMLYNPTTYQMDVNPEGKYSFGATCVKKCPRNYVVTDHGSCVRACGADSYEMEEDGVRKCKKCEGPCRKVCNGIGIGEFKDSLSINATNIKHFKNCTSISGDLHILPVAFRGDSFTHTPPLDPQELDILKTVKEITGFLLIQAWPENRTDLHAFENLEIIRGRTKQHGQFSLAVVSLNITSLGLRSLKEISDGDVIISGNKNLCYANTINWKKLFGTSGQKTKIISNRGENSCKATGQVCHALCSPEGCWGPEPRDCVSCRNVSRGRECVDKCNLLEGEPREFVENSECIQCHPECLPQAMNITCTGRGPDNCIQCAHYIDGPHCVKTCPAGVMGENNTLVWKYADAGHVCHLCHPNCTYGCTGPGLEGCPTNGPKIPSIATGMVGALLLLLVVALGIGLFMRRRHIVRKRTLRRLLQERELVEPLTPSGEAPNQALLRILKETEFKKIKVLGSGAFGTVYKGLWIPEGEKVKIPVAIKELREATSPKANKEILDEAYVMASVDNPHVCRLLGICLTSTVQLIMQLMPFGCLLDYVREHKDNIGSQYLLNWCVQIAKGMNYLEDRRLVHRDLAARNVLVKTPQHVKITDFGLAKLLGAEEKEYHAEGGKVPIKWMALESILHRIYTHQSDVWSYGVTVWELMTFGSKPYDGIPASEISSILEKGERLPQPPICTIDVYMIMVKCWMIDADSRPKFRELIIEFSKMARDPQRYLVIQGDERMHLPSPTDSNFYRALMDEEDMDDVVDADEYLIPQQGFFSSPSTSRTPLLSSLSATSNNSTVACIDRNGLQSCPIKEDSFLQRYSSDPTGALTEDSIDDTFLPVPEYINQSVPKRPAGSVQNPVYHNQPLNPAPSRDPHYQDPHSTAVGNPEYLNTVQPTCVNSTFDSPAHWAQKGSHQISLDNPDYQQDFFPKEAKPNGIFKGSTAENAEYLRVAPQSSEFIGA", "settings": "at 10 µM"}, "[14]": {"target": "Ribosomal protein S6 kinase alpha-3 (Homo sapiens, UniProt P51812)", "test": "Selectivity interaction (KinomeScan (DiscoverX)) EUB0001619a RPS6KA3", "settings": "at 1 µM"}, "[15]": {"target": "Phosphatidylinositol 4-phosphate 5-kinase type-1 alpha (Homo sapiens) (UniProt Q99755)", "test": "Selectivity interaction (KinomeScan (DiscoverX)) EUB0000655a PIP5K1A", "settings": "at 10 µM"}, "[16]": {"target": "Kappa-type opioid receptor (Homo sapiens, UniProt P41145)", "test": "Selectivity interaction (Panel of kinases, GPCRs, ion channels and transporters (enzymatic assay)) EUB0000266bCl OPRK1"}, "[17]": {"target": "T2, Mitogen-activated protein kinase 12 (Homo sapiens) (UniProt P53778)", "T2 sequence (whole entry)": "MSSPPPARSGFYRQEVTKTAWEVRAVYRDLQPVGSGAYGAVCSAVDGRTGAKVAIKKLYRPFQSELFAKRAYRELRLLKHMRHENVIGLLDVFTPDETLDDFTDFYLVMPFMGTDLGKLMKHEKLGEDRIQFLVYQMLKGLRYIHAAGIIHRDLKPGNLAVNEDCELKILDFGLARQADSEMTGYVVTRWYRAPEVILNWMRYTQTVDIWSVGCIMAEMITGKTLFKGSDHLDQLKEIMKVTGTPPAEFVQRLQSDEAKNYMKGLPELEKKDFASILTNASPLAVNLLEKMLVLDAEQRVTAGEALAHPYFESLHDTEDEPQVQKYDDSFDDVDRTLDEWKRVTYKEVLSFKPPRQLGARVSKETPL", "test": "Selectivity interaction (Kinase panel (Z-LYTE Assay)) EUB0001632a MAPK12", "settings": "at 10 µM"}}, "data": [{"compound": "COc1cc(Nc2nc(C)cc(-c3cnn4nc(OC)ccc34)n2)cc(C(F)(F)F)c1", "values": [{"measurement": "% of control", "setting": "[1]", "value": 88, "unit": "%"}]}, {"compound": "CCc1cc(Nc2nccc(-c3c(-c4ccc(OC)c(C(=O)Nc5c(F)cccc5F)c4)nc4ccccn34)n2)c(OC)cc1N1CCC(N2CCN(S(C)(=O)=O)CC2)CC1", "values": [{"measurement": "% of inhibition", "setting": "[2]", "value": 68, "unit": "%"}]}, {"compound": "C=CC(=O)Nc1ccc(C(=O)Nc2[nH]nc3c2CN(C(=O)N[C@H](CN(C)C)c2ccccc2)C3(C)C)cc1", "values": [{"measurement": "% of engagement", "setting": "[3]; Selectivity number of off-targets 0.0, Selectivity number of targets 233.0, Source Knowledge https://www.sciencedirect.com/science/article/pii/S2451945619300674?via%3Dihub", "value": -1.7, "unit": "%"}, {"measurement": "% of engagement", "setting": "[3]", "value": 0.4, "unit": "%"}, {"measurement": "% of engagement", "setting": "[4]", "value": 8.1, "unit": "%"}]}, {"compound": "CCN(CC)CCCCNc1ncc2cc(-c3cc(OC)cc(OC)c3)c(NC(=O)NC(C)(C)C)nc2n1", "values": [{"measurement": "% of control", "setting": "[5]", "value": 100, "unit": "%"}]}, {"compound": "CC[C@@H]1[C@H](F)C(=O)N[C@@H]1COc1nccc2cc(C(N)=O)c(OC)cc12", "note": "[ZIMLOVISERTIB]", "values": [{"measurement": "% of inhibition", "setting": "[6]", "value": 3.3, "unit": "%"}, {"measurement": "% of inhibition", "setting": "[7]; at 0.01 µM", "value": 20.6, "unit": "%"}, {"measurement": "% of inhibition", "setting": "[7]; at 0.04 µM", "value": 7.3, "unit": "%"}, {"measurement": "% of inhibition", "setting": "[7]; at 0.2 µM", "value": 30.8, "unit": "%"}, {"measurement": "% of inhibition", "setting": "[7]; at 1 µM", "value": 60.2, "unit": "%"}, {"measurement": "% of inhibition", "setting": "[7]; at 5 µM", "value": 82.3, "unit": "%"}, {"measurement": "% of inhibition", "setting": "[8]", "value": -9.7, "unit": "%"}, {"measurement": "% of inhibition", "setting": "[9]", "value": -18.4, "unit": "%"}]}, {"compound": "COCC(=O)NC/C=C/c1ccc2ncnc(Nc3ccc(Oc4ccc(C)nc4)c(C)c3)c2c1", "note": "[CP-724714]", "values": [{"measurement": "% of control", "setting": "[10]", "value": 100, "unit": "%"}]}, {"compound": "CCC(=O)N1CCN(c2ccc(-n3c(=O)ccc4cnc5ccc(-c6cnc7ccccc7c6)cc5c43)cc2C(F)(F)F)CC1", "values": [{"measurement": "% of control", "setting": "[11]", "value": 53, "unit": "%"}]}, {"compound": "O[C@H]1CC[C@H](Nc2ncc3nc(Nc4c(F)cc(F)cc4F)n([C@H]4CCOC4)c3n2)CC1", "values": [{"measurement": "% of control", "setting": "[12]", "value": 98, "unit": "%"}]}, {"compound": "Cc1cc([C@@H](C)Nc2ccccc2C(=O)O)c2nc(N3CCOCC3)cc(=O)n2c1", "note": "[AZD-6482]", "values": [{"measurement": "% of control", "setting": "[13]", "value": 100, "unit": "%"}]}, {"compound": "N#Cc1cccc(-c2c[nH]c3ncnc(N4CCOCC4)c23)c1", "values": [{"measurement": "% of control", "setting": "[14]", "value": 38, "unit": "%"}]}, {"compound": "CN(C)CCOc1ccc(-c2nc(-c3ccncc3)c(-c3ccc4c(c3)CC/C4=N\\O)[nH]2)cc1", "values": [{"measurement": "% of control", "setting": "[15]", "value": 100, "unit": "%"}]}, {"compound": "CCn1c(-c2nc3cc(C(=O)N4CCCC(N)C4)ccc3n2C)cc2ccccc21", "note": "(configuration not stated)", "values": [{"measurement": "pXC50", "setting": "[16]", "value": "> 4", "unit": "M"}]}, {"compound": "Cn1cc(-n2cnc3c(NCc4nc5cc(Cl)c(Cl)cc5[nH]4)nc(N4CCOCC4)nc32)cn1", "values": [{"measurement": "% of control", "setting": "[17]", "value": 1.47, "unit": "%"}]}]}
